Several values for one entry are separate records, joined by “and”; a condition that tells them apart may be missing. Equal entries are not always repeated. Inconclusive results and toxic doses are left out.

In PubChem BioAssay AID292 (DTP/NCI, 2004) one finds T/C data, which are given here for 17 molecules.

The test system of this assay is B6C3F1 mice, ip Sarcoma M5076, median survival T/C. The experiment in a line: NCI In Vivo Anticancer Drug Screen. Data for tumor model Sarcoma M5076 (intraperitoneal) in B6C3F1 mice. Conditions: endpoint: median survival time, higher = longer survival. An outline of the steps: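 Transplantable tumour in mice; compound-treated vs vehicle-treated groups. Read-out: survival. Value = treated/control ratio.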

Where [1] appears, read: dose: 50.0 mg/kg/injection, schedule: Q04DX004 (ip), vehicle: Klucel (hydroxypropylcellulose) (HPC).
Setting [2] is: dose: 100.0 mg/kg/injection, schedule: Q04DX004 (ip), vehicle: Klucel (hydroxypropylcellulose) (HPC).
Setting [3] is: dose: 200.0 mg/kg/injection, schedule: Q04DX004 (ip), vehicle: Klucel (hydroxypropylcellulose) (HPC).
The mark [4] stands for this setting: dose: 50.0 mg/kg/injection, schedule: Q04DX004 (ip), vehicle: saline with Tween-80.
The mark [5] stands for this setting: dose: 100.0 mg/kg/injection, schedule: Q04DX004 (ip), vehicle: saline with Tween-80.
[6] abbreviates: dose: 200.0 mg/kg/injection, schedule: Q04DX004 (ip), vehicle: saline with Tween-80.
The mark [7] stands for this setting: dose: 400.0 mg/kg/injection, schedule: Q04DX004 (ip), vehicle: saline with Tween-80.
Setting [8] is: dose: 37.5 mg/kg/injection, schedule: Q04DX004 (ip), vehicle: saline with Tween-80.
[9] abbreviates: dose: 75.0 mg/kg/injection, schedule: Q04DX004 (ip), vehicle: saline with Tween-80.
[10] abbreviates: dose: 25.0 mg/kg/injection, schedule: Q04DX004 (ip), vehicle: saline with Tween-80.

As for `CNNCc1ccc(C(=O)NC(C)C)cc1`, the T/C is, setting by setting: (dose: 22.0 mg/kg/injection, schedule: Q04DX004 (ip), vehicle: saline) 119 % of control; (dose: 88.0 mg/kg/injection, schedule: Q04DX004 (ip), vehicle: saline) 152 % of control; (dose: 352.0 mg/kg/injection, schedule: Q04DX004 (ip), vehicle: saline) 152 % of control.
Take `CC1=C(N2CCOCC2)C(N2CCOCC2)=C(C)C(=O)C1=O`: the T/C reads like this: under setting [1], 104 % of control; under setting [2], 100 % of control; under setting [3], 100 % of control; (dose: 400.0 mg/kg/injection, schedule: Q04DX004 (ip), vehicle: Klucel (hydroxypropylcellulose) (HPC)) 113 % of control; (dose: 800.0 mg/kg/injection, schedule: Q04DX004 (ip), vehicle: Klucel (hydroxypropylcellulose) (HPC)) 95 % of control.
For the molecule `OC1OC2COC(c3ccccc3)OC2C(O)C1O` (stereo not given), the T/C was 109 % of control (dose: 18.75 mg/kg/injection, schedule: Q04DX004 (ip), vehicle: water); 89 % of control (dose: 37.5 mg/kg/injection, schedule: Q04DX004 (ip), vehicle: water); 96 % of control (dose: 75.0 mg/kg/injection, schedule: Q04DX004 (ip), vehicle: water); 101 % of control (dose: 150.0 mg/kg/injection, schedule: Q04DX004 (ip), vehicle: water); 98 % of control (dose: 300.0 mg/kg/injection, schedule: Q04DX004 (ip), vehicle: water); 94 % of control (dose: 600.0 mg/kg/injection, schedule: Q04DX004 (ip), vehicle: water).
Regarding `COc1ccc([N+](=O)[O-])cc1NC(=O)C1C(=O)C(=O)N(c2cc([N+](=O)[O-])ccc2OC)C1=O` (stereo not given), the T/C was 100 % of control under setting [1], 107 % of control under setting [2] and 100 % of control under setting [3].
`O=c1/c(=C\C=C\c2ccccc2)sc2n1CCN=2`: the T/C was 95 % of control under setting [4], 99 % of control under setting [5], 91 % of control under setting [6] and 99 % of control under setting [7].
As to `O=CC(S)CO` (stereo not given), the T/C runs as follows: (dose: 25.0 mg/kg/injection, schedule: Q04DX004 (ip), vehicle: suspension in saline) 108 % of control; (dose: 50.0 mg/kg/injection, schedule: Q04DX004 (ip), vehicle: suspension in saline) 104 % of control; (dose: 200.0 mg/kg/injection, schedule: Q04DX004 (ip), vehicle: suspension in saline) 118 % of control; (dose: 400.0 mg/kg/injection, schedule: Q04DX004 (ip), vehicle: suspension in saline) 113 % of control.
As for `COc1ccc(NC(=O)/N=C2\CN(C(=O)c3c(F)cccc3F)C(=O)N2c2ccc(OC)cc2)cc1`, the T/C is 95 % of control (dose: 3.0 mg/kg/injection, schedule: Q04DX004 (ip), vehicle: saline with Tween-80); 100 % of control (dose: 6.0 mg/kg/injection, schedule: Q04DX004 (ip), vehicle: saline with Tween-80); 102 % of control (dose: 12.0 mg/kg/injection, schedule: Q04DX004 (ip), vehicle: saline with Tween-80); 95 % of control (dose: 24.0 mg/kg/injection, schedule: Q04DX004 (ip), vehicle: saline with Tween-80); 95 % of control (dose: 48.0 mg/kg/injection, schedule: Q04DX004 (ip), vehicle: saline with Tween-80).
Regarding `Cn1nc2c(c(Cl)c1=O)Nc1ccccc1O2`, the T/C is 104 % of control under setting [8]; 97 % of control under setting [9]; 96 % of control (dose: 150.0 mg/kg/injection, schedule: Q04DX004 (ip), vehicle: saline with Tween-80).
`CC(C)(C)c1ccc(C(=O)N2CCOC23CCCCC3)cc1`: the T/C is, setting by setting: under setting [4], 101 % of control and 103 % of control; under setting [5], 93 % of control and 103 % of control; under setting [6], 97 % of control and 98 % of control; under setting [7], 91 % of control and 100 % of control; (dose: 800.0 mg/kg/injection, schedule: Q04DX004 (ip), vehicle: saline with Tween-80) 89 % of control and 93 % of control.
For the molecule `CN(C)CCNC1=C(Cl)C(=O)c2ccccc2C1=O`, the T/C by setting is: (dose: 1.5 mg/kg/injection, schedule: Q04DX004 (ip), vehicle: saline) 91 % of control; (dose: 3.0 mg/kg/injection, schedule: Q04DX004 (ip), vehicle: saline) 98 % of control; (dose: 6.0 mg/kg/injection, schedule: Q04DX004 (ip), vehicle: saline) 89 % of control; (dose: 12.0 mg/kg/injection, schedule: Q04DX004 (ip), vehicle: saline) 105 % of control; (dose: 12.5 mg/kg/injection, schedule: Q04DX004 (ip), vehicle: saline) 106 % of control.
Turning to `CC(C)[C@](O)(C(=O)OCC1=CC[N+]2([O-])CC[C@@H](O)[C@@H]12)[C@H](C)O` (stereo not given in full), the T/C was 111 % of control (dose: 75.0 mg/kg/injection, schedule: Q04DX005 (ip), vehicle: saline); 122 % of control (dose: 112.5 mg/kg/injection, schedule: Q04DX004 (ip), vehicle: water); 108 % of control (dose: 150.0 mg/kg/injection, schedule: Q04DX005 (ip), vehicle: saline); 150 % of control (dose: 225.0 mg/kg/injection, schedule: Q04DX004 (ip), vehicle: water); 153 % of control (dose: 300.0 mg/kg/injection, schedule: Q04DX005 (ip), vehicle: saline); 199 % of control (dose: 450.0 mg/kg/injection, schedule: Q04DX004 (ip), vehicle: water). Besides, the T/C is, setting by setting: (dose: 600.0 mg/kg/injection, schedule: Q04DX005 (ip), vehicle: saline) 230 % of control; (dose: 900.0 mg/kg/injection, schedule: Q04DX004 (ip), vehicle: water) 208 % of control; (dose: 1200.0 mg/kg/injection, schedule: Q04DX005 (ip), vehicle: saline) 230 % of control; (dose: 1800.0 mg/kg/injection, schedule: Q04DX004 (ip), vehicle: water) 291 % of control.
As for `C=CC1(C)CC(=O)C2(O)C(C)(O1)C(OC(C)=O)C(O)C1C(C)(C)CCC(O)C12C` (stereo not given), the T/C by setting is: (dose: 2.0 mg/kg/injection, schedule: Q04DX004 (ip), vehicle: DMSO) 98 % of control; (dose: 4.0 mg/kg/injection, schedule: Q04DX004 (ip), vehicle: DMSO) 104 % of control; (dose: 8.0 mg/kg/injection, schedule: Q04DX004 (ip), vehicle: DMSO) 98 % of control; (dose: 16.0 mg/kg/injection, schedule: Q04DX004 (ip), vehicle: DMSO) 96 % of control and 101 % of control; (dose: 32.0 mg/kg/injection, schedule: Q04DX004 (ip), vehicle: DMSO) 95 % of control and 107 % of control.
Consider `CCN(CC)Cc1cc2[nH]c3c4ccc(Cl)cc4ncc3c2cc1OC` (tested in a mixture with another compound), for which the T/C (dose: 18.75 mg/kg/injection, schedule: Q04DX004 (ip), vehicle: saline with Tween-80) was 104 % of control; the T/C under setting [10] is 117 % of control; the T/C under setting [8] is 112 % of control; the T/C under setting [4] is 110 % of control; the T/C under setting [9] was 99 % of control; the T/C under setting [5] is 105 % of control.
As for `COC1CCCCC1C(N)C(=O)O` (stereo not given) (tested in a mixture with another compound), the T/C runs as follows: under setting [10], 100 % of control; under setting [4], 91 % of control; under setting [5], 95 % of control; under setting [6], 95 % of control; under setting [7], 93 % of control.
Consider `c1ccc2c(c1)[nH]c1c2c(N2CCOCC2)nn2cnnc12`, for which the T/C by setting is: (dose: 12.5 mg/kg/injection, schedule: Q04DX004 (ip), vehicle: saline with Tween-80) 92 % of control; under setting [10], 88 % of control and 96 % of control; under setting [4], 100 % of control; under setting [5], 95 % of control; under setting [6], 87 % of control.
Consider `N#CC1C(=O)NC(=S)NC1c1ccco1` (stereo not given), for which the T/C runs as follows: under setting [1], 98 % of control; under setting [2], 100 % of control.
For `CCNC(=O)OCc1cnc(C)c(O)c1COC(=O)NCC`, the T/C by setting is: (dose: 50.0 mg/kg/injection, schedule: Q04DX004 (ip), vehicle: saline) 97 % of control; (dose: 100.0 mg/kg/injection, schedule: Q04DX004 (ip), vehicle: saline) 107 % of control; (dose: 200.0 mg/kg/injection, schedule: Q04DX004 (ip), vehicle: saline) 108 % of control; (dose: 400.0 mg/kg/injection, schedule: Q04DX004 (ip), vehicle: saline) 102 % of control.
